Our source for the EC50 values is patent US9193720B2, “Pyridin-3-yl acetic acid derivatives as inhibitors of human immunodeficiency virus replication” (priority 2014, dated 2015).

This test relates to NL-RLuc virus. In words: Inhibition of HIV Replication (NL-RLuc luciferase reporter virus in MT-2 cells). Type of test: cell-based. The settings on record: Human immunodeficiency virus 1, MT2, 120 h. From the text: Inhibition of HIV Replication:
A recombinant NL-RLuc proviral clone was constructed in which a section of the nef gene from NL4-3 was replaced with the Renilla Luciferase gene. This virus is fully infectious and can undergo multiple cycles of replication in cell culture. In addition, the luciferous reporter provides a simple and easy method for quantitating the extent of virus growth and consequently, the antiviral activity of test compounds. The plasmid pNLRLuc contains the proviral NL-Rluc DNA cloned into pUC18 at the PvuII site. The NL-RLuc virus was prepared by transfection of 293T cells with the plasmid pNLRLuc. Transfections were performed using the LipofectAMINE PLUS kit from Invitrogen (Carlsbad, Calif.) according to the manufacturer and the virus generated was titered in MT-2 cells. For susceptibility analyses, the titrated virus was used to infect MT-2 cells in the presence of compound, and after 5 days of incubation, cells were processed and quantitated for virus growth by the amount of expressed luciferase. Assay media was RPMI 1640 supplemented with 10% heat inactivated fetal bovine serum (FBS), 100 units/ml penicillin G/100 units/ml streptomycin, 10 mM HEPES buffer pH 7.55 and 2 mM L-glutamine. The results from at least 2 experiments were used to calculate the EC50 values. Luciferase was quantitated using the Dual Luciferase kit from Promega (Madison, Wis.). Susceptibility of viruses to compounds was determined by incubation in the presence of serial dilutions of the compound. The 50% effective concentration (EC50) was calculated by using the exponential form of the median effect equation where (Fa)=1/[1+(ED50/drug conc.)^m] (Johnson V A, Byington R T. Infectivity Assay. In Techniques in HIV Research. ed. Aldovini A, Walker B D. 71-76. New York: Stockton Press. 1990).
(In general: In a reporter assay the amount or activity of a reporter protein is the signal.)

As for `Cc1nc(C)c([C@H](OC(C)(C)C)C(=O)O)c(N2CCC(C)(C)CC2)c1-c1ccc(OCCc2ccccc2)cc1` [Example 39, (S)-2-(tert-butoxy)-2-(4-(4,4-dimethylpiperidin-1-yl)-2,6-dimethyl-5-(4-phenethoxyphenyl)pyridin-3-yl)acetic acid], a half-maximal effect (EC50) was put at 2 nM. This counts as single-digit nanomolar.
The value for `Cc1cc(CCOc2ccc(-c3c(C)nc(C)c([C@H](OC(C)(C)C)C(=O)O)c3N3CCC(C)(C)CC3)cc2)ccc1F` [Example 12, (S)-2-(tert-butoxy)-2-(4-(4,4-dimethylpiperidin-1-yl)-5-(4-(4-fluoro-3-methylphenethoxy)phenyl)-2,6-dimethylpyridin-3-yl)acetic acid] was 5 nM; that for `Cc1nc(C)c([C@H](OC(C)(C)C)C(=O)O)c(N2CCC(C)(C)CC2)c1-c1ccc(OC(C)Cc2ccc(F)cc2)cc1` (single isomer, unassigned) [Example 21] was 14 nM.
With `Cc1nc(C)c([C@H](OC(C)(C)C)C(=O)O)c(N2CC(F)(F)C2)c1-c1ccc(OCCc2ccc(F)cc2)cc1` [Example 69, (S)-2-(tert-butoxy)-2-(4-(3,3-difluoroazetidin-1-yl)-5-(4-(4-fluorophenethoxy)phenyl)-2,6-dimethylpyridin-3-yl)acetic acid] the figure was 1990 nM; with `Cc1nc(C)c([C@H](OC(C)(C)C)C(=O)O)c(N2CCC(C)(C#N)CC2)c1-c1ccc(OCCc2ccc(F)cc2)cc1` [Example 78, (S)-2-(tert-butoxy)-2-(4-(4-cyano-4-methylpiperidin-1-yl)-5-(4-(4-fluorophenethoxy)phenyl)-2,6-dimethylpyridin-3-yl)acetic acid], 4 nM; with `COc1cc(-c2c(C)nc(C)c([C@H](OC(C)(C)C)C(=O)O)c2N2CCC(C)(C)CC2)cc(OC)c1OC` [Example 60, (S)-2-(tert-butoxy)-2-(4-(4,4-dimethylpiperidin-1-yl)-2,6-dimethyl-5-(3,4,5-trimethoxyphenyl)pyridin-3-yl)acetic acid], 262 nM.
Compound `Cc1ccc(CCOc2ccc(-c3c(C)nc(C)c([C@H](OC(C)(C)C)C(=O)O)c3N3CCC(C)(C)CC3)cc2)cc1` [Example 28, (S)-2-(tert-butoxy)-2-(4-(4,4-dimethylpiperidin-1-yl)-2,6-dimethyl-5-(4-(4-methylphenethoxy)phenyl)pyridin-3-yl)acetic acid] returned an EC50 of 19 nM.
The compound `CCOc1ccc(-c2c(C)nc(C)c([C@H](OC(C)(C)C)C(=O)O)c2N2CCC(C)(C)CC2)cc1F` [Example 65, (S)-2-(tert-butoxy)-2-(4-(4,4-dimethylpiperidin-1-yl)-5-(4-ethoxy-3-fluorophenyl)-2,6-dimethylpyridin-3-yl)acetic acid] gave an EC50 of 44 nM.
With `COc1cccc(CCOc2ccc(-c3c(C)nc(C)c([C@H](OC(C)(C)C)C(=O)O)c3N3CCC(C)(C)CC3)cc2OCCc2cccc(OC)c2)c1` [Example 46, (S)-2-(5-(3,4-bis(3-methoxyphenethoxy)phenyl)-4-(4,4-dimethylpiperidin-1-yl)-2,6-dimethylpyridin-3-yl)-2-(tert-butoxy)acetic acid] the figure was 14 nM; with `Cc1ccc(-c2c(C)nc(C)c([C@H](OC(C)(C)C)C(=O)O)c2N2CCC(C)(C)CC2)cc1OCc1ccccc1` [Example 55, (S)-2-(5-(3-(benzyloxy)-4-methylphenyl)-4-(4,4-dimethylpiperidin-1-yl)-2,6-dimethylpyridin-3-yl)-2-(tert-butoxy)acetic acid], 93 nM.
With `Cc1nc(C)c([C@H](OC(C)(C)C)C(=O)O)c(N2CCC(C)(C)CC2)c1-c1ccc(OCc2cnc(Cl)s2)cc1` [Example 47, (S)-2-(tert-butoxy)-2-(5-(4-((2-chlorothiazol-5-yl)methoxy)phenyl)-4-(4,4-dimethylpiperidin-1-yl)-2,6-dimethylpyridin-3-yl)acetic acid] the figure was 18 nM.

For orientation: EC50 means the midpoint of the concentration-response curve. Read a high EC50 as weaker potency.
